US8962660B2 (Bristol-Myers Squibb Company, priority 2013, dated 2015)
Where a name gives a salt, the structure may show the parent alone.

Target: T1, human GPR120 (Homo sapiens, UniProt Q5NUL3)
T1 construct: expressed in transfected cells; host or cells: CHOA12 cells
T1 sequence (Q5NUL3 1-361): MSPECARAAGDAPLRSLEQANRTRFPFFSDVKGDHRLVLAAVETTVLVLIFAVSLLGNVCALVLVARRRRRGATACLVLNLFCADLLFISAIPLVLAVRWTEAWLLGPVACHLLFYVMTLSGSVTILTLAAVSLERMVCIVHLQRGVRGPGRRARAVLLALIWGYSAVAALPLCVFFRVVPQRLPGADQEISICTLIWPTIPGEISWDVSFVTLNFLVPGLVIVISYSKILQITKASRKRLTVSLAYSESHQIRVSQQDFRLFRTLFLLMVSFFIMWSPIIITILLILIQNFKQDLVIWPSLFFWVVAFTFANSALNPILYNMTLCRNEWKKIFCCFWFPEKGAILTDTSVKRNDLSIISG
Assay: GPR120 pERK AlphaScreen SureFire assay (human)
Type: cell-based
Conditions: CHO cells stably transfected with short form of human GPR120
From the text: GPR120 activity was monitored by measuring phosphorylation of ERK (pERK), since G protein receptors are known to activate the ERK signaling cascade either directly and/or through recruitment of arrestin that serves as a scaffold for downstream signaling events.
GPR120 pERK AlphaScreen SureFire Assay
The human and mouse GPR120-mediated intracellular phosphorylated ERK assays were established using CHOA12 cells stably transfected with the short form of human or mouse GPR120 receptor. Cells were cultured in growth medium consisting of F-12 media (Invitrogen Cat. #11765) with 5% Charcoal/Dextran FBS (Invitrogen Cat. #12676-029), 500 μg/mL GENETICIN® (Life Technologies Cat. #10131-027) and 250 μg/mL Zeocin (Invitrogen Cat. #R250-01). Cells were cryo preserved at a concentration of 2×10^7 cells/mL, in 90% Charcoal/Dextran FBS and 10% DMSO, and frozen in liquid nitrogen at a low passage number.
For the pERK assay, 2×10^7 cells/mL cryopreserved human and mouse cells were thawed rapidly in a 37° C. water bath and added to a T-225 flask containing 50 mL growth medium. The flasks were placed in a tissue culture incubator overnight (37° C., 5% CO2). The next day, cells were harvested with trypsin (Gibco Cat. #25300-054), resuspended in serum-containing growth medium and counted using a Cellometer and volume adjusted to a concentration of 0.6×10^6cells/mL. Cells were plated into 384-well clear bottom tissue culture plates (BD Cat. #353962) at 50 μL/well, for a density of 30,000 cells/well using a MULTIDROP® and incubated for 16-18 hours (overnight) at 37° C. with 5% CO2. The next day, cells were serum starved in 30 μL of F-12 media without any serum or antibiotics for 2 hours at 37° C.
Test compounds were 3-fold, 11-point serially diluted in DMSO in a REMP assay plate (Matrix Cat. #4307) by Tecan and 5 μL was transferred into an ECHO source plate (LABCYTE® Cat. #LC-0200). Cells were then stimulated with 50 nL of compound dilutions using ECHO liquid handler for 7 minutes at 37° C. Compounds ranged from final assay concentrations of 33.33 μM to 0.56 nM.
The media was then dumped and cells lysed with 20 μL of 1× Lysis buffer from the AlphaScreen SureFire Phospho-ERK 1/2 Kit (Perkin Elmer Cat. #6760617M). The lysis buffer was diluted 5-fold with water before use. The plate was agitated on a shaker for 10 minutes after which 2 μL was transferred into a 384-well white proxiplate (Perkin Elmer Cat. #6008289). The SureFire assay reagent mix was prepared by mixing 60 parts Reaction Buffer, 10 parts Activation Buffer, 1 part Donor Beads, 1 part Acceptor Beads (Perkin Elmer Cat. #TGRES10K). 3.5 μL/well of this reagent mix was manually added to the proxiplate with a multichannel pipettor. Plates were spun down at 1000 rpm for 2 minutes, followed by light-protected incubation at room temperature for 2 hours. The plates were read on the Alpha-technology compatible Envision multilabel plate reader using AlphaScreen protocol according to manufacturer's specifications. The agonist effect of compounds was expressed as 100×(average sample−average blank)/(average total−average blank) where sample is the luminescence activity in the presence of test compound, blank is equal to the luminescence activity in the presence of DMSO control and the total is signal induced by 50 μM linolenic acid as reference compound. Activation data for the test compound over a range of concentrations was plotted as percentage activation of the test compound (100%=maximum response). After correcting for background, EC50 values were determined The EC50 is defined as the concentration of test compound which produces 50% of the maximal response and was quantified using the 4 parameter logistic equation to fit the data.
The human and mouse GPR120-mediated intracellular phosphorylated ERK assays were also established using CHO-K1 cells stably transfected with the short form of human or mouse GPR120 receptor. […]

Row | EC50 [nM] | SMILES
1 | 640 | O=C(O)CCCCC12CCC(c3cccc(OC4CCCCO4)c3)(CC1)OC2 (centres unmarked) [Example 10, 5-(1-(3-(Tetrahydro-2H-pyran-2-yloxy)phenyl)-2-oxabicyclo[2.2.2]octan-4-yl)pentanoic acid]
2 | 100 | O=C(O)/C=C/CCC12CCC(c3cccc(Oc4ccccc4)c3)(CC1)OC2 [Example 11, (E)-5-(1-(3-Phenoxyphenyl)-2-oxabicyclo[2.2.2]octan-4-yl)pent-2-enoic acid]
3 | 980 | O=C(O)COCCCC12CCC(c3cccc(Oc4ccccc4)c3)(CC1)OC2 [Example 12, 2-(3-(1-(3-Phenoxyphenyl)-2-oxabicyclo[2.2.2]octan-4-yl)propoxy)acetic acid]
4 | 160 | O=C(O)CC1CC1CC12CCC(c3cccc(Oc4ccccc4)c3)(CC1)OC2 (stereo not drawn) [Example 16, 2-(2-((1-(3-Phenoxyphenyl)-2-oxabicyclo[2.2.2]octan-4-yl)methyl)cyclopropyl)acetic acid (trans)]
5 | 1980 | C=C(C)COc1cccc(C23CCC(CCOCC(=O)O)(CC2)CO3)c1 [Example 19, 2-(2-(1-(3-(2-Methylallyloxy)phenyl)-2-oxabicyclo[2.2.2]octan-4-yl)ethoxy)acetic acid]
6 | 650 | CC(C)=COc1cccc(C23CCC(CCOCC(=O)O)(CC2)CO3)c1 [Example 20, 2-(2-(1-(3-(2-Methylprop-1-enyloxy)phenyl)-2-oxabicyclo[2.2.2]octan-4-yl)ethoxy)acetic acid]
7 | 6860 | O=C(O)COCCC12CCC(c3cccc(Oc4cccnc4)c3)(CC1)OC2 [Example 21, 2-(2-(1-(3-(Pyridin-3-yloxy)phenyl)-2-oxabicyclo[2.2.2]octan-4-yl)ethoxy)acetic acid, TFA salt]
8 | 380 | COc1cccc(Oc2cccc(C34CCC(CCOCC(=O)O)(CC3)CO4)c2)c1 [Example 22, 2-(2-(1-(3-(3-Methoxyphenoxy)phenyl)-2-oxabicyclo[2.2.2]octan-4-yl)ethoxy)acetic acid]
9 | 310 | O=C(O)COCCC12CCC(c3cc(F)cc(Oc4ccccc4)c3)(CC1)OC2 [Example 23, 2-(2-(1-(3-Fluoro-5-phenoxyphenyl)-2-oxabicyclo[2.2.2]octan-4-yl)ethoxy)acetic acid]
10 | 800 | O=C(O)COCCC12CCC(c3cccc(C4=CCCC4)c3)(CC1)OC2 [Example 24, 2-(2-(1-(3-Cyclopentenylphenyl)-2-oxabicyclo[2.2.2]octan-4-yl)ethoxy)acetic acid]
11 | 590 | O=C(CCCCC12CCC(c3cccc(Oc4ccccc4)c3)(CC1)OC2)NS(=O)(=O)c1ccccc1 [Example 25, 5-(1-(3-Phenoxyphenyl)-2-oxabicyclo[2.2.2]octan-4-yl)-N-(phenylsulfonyl)pentanamide]
12 | 170 | CS(=O)(=O)NC(=O)CCCCC12CCC(c3cccc(Oc4ccccc4)c3)(CC1)OC2 [Example 26, N-(Methylsulfonyl)-5-(1-(3-phenoxyphenyl)-2-oxabicyclo[2.2.2]octan-4-yl)pentanamide]
13 | 5020 | O=C(O)CNC(=O)CC12CCC(c3cccc(Oc4ccccc4)c3)(CC1)OC2 [Example 27, 2-(2-(1-(3-Phenoxyphenyl)-2-oxabicyclo[2.2.2]octan-4-yl)acetamido)acetic acid]
14 | 1980 | O=C(O)COC(=O)NCC12CCC(c3cccc(Oc4ccccc4)c3)(CC1)OC2 [Example 28, 2-((1-(3-Phenoxyphenyl)-2-oxabicyclo[2.2.2]octan-4-yl)methylcarbamoyloxy)acetic acid]
15 | 1570 | O=C(O)CCS(=O)(=O)CC12CCC(c3cccc(Oc4ccccc4)c3)(CC1)OC2 [Example 29, 3-((1-(3-Phenoxyphenyl)-2-oxabicyclo[2.2.2]octan-4-yl)methylsulfonyl)propanoic acid]
16 | 140 | O=C(O)CCOCC12CCC(c3cccc(Oc4ccccc4)c3)(CC1)CO2 [Example 30, 3-((4-(3-Phenoxyphenyl)-2-oxabicyclo[2.2.2]octan-1-yl)methoxy)propanoic acid]
17 | 280 | O=C(O)COCCC12CCC(c3cccc(Oc4ccccc4)c3)(CC1)CO2 [Example 31, 2-(2-(4-(3-Phenoxyphenyl)-2-oxabicyclo[2.2.2]octan-1-yl)ethoxy)acetic acid]
18 | 1900 | COC(CCC12CCC(c3cccc(Oc4ccccc4)c3)(CC1)OC2)CC(=O)O (centres unmarked) [Example 33, 3-Methoxy-5-(1-(3-phenoxyphenyl)-2-oxabicyclo[2.2.2]octan-4-yl)pentanoic acid]
19 | 70 | O=C(O)C/C=C/CC12CCC(c3cccc(Oc4ccccc4)c3)(CC1)OC2 [Example 34, (E)-5-(1-(3-Phenoxyphenyl)-2-oxabicyclo[2.2.2]octan-4-yl)pent-3-enoic acid]
20 | 660 | O=C(O)/C=C\CCC12CCC(c3cccc(Oc4ccccc4)c3)(CC1)OC2 [Example 35, (Z)-5-(1-(3-Phenoxyphenyl)-2-oxabicyclo[2.2.2]octan-4-yl)pent-2-enoic acid]
21 | 1140 | O=C(O)COCCC12CCC(c3ccccc3Oc3ccccc3)(CC1)OC2 [Example 37, 2-(2-(1-(2-Phenoxyphenyl)-2-oxabicyclo[2.2.2]octan-4-yl)ethoxy)acetic acid]
22 | 200 | O=C(O)COCCC12CCC(c3cccc(Oc4ccc(F)cc4)c3)(CC1)OC2 [Example 39, 2-(2-(1-(3-(4-fluorophenoxy)phenyl)-2-oxabicyclo[2.2.2]octan-4-yl)ethoxy) acetic acid]
23 | 300 | O=C(O)COCCC12CCC(c3cccc(Oc4ccc(Cl)cc4)c3)(CC1)OC2 [Example 40, 2-(2-(1-(3-(4-chlorophenoxy)phenyl)-2-oxabicyclo[2.2.2]octan-4-yl)ethoxy) acetic acid]
24 | 200 | Cc1ccc(Oc2cccc(C34CCC(CCOCC(=O)O)(CC3)CO4)c2)cc1 [Example 41, 2-(2-(1-(3-(p-tolyloxy)phenyl)-2-oxabicyclo [2.2.2]octan-4-yl)ethoxy)acetic acid]
25 | 370 | COc1ccc(Oc2cccc(C34CCC(CCOCC(=O)O)(CC3)CO4)c2)cc1 [Example 42, 2-(2-(1-(3-(4-methoxyphenoxy)phenyl)-2-oxabicyclo [2.2.2]octan-4-yl)ethoxy)acetic acid]
26 | 550 | Cc1cccc(Oc2cccc(C34CCC(CCOCC(=O)O)(CC3)CO4)c2)c1 [Example 43, 2-(2-(1-(3-(m-tolyloxy)phenyl)-2-oxabicyclo [2.2.2]octan-4-yl)ethoxy)acetic acid]
27 | 450 | O=C(O)COCCC12CCC(c3cccc(Oc4cccc(Cl)c4)c3)(CC1)OC2 [Example 44, 2-(2-(1-(3-(3-chlorophenoxy)phenyl)-2-oxabicyclo[2.2.2]octan-4-yl)ethoxy) acetic acid]

Row | SMILES | EC50 [nM]
28 | CC(C)COc1cccc(C23CCC(CCOCC(=O)O)(CC2)CO3)c1 [Example 9, 2-(2-(1-(3-Isobutoxyphenyl)-2-oxabicyclo[2.2.2]octan-4-yl)ethoxy)acetic acid] | 1280
29 | CC(C)COc1cc(F)cc(C23CCC(CCOCC(=O)O)(CC2)CO3)c1 [Example 36, 2-(2-(1-(3-Fluoro-5-isobutoxyphenyl)-2-oxabicyclo[2.2.2]octan-4-yl)ethoxy)acetic acid] | 720
